The record followed here is patent US4710500A, “1-(4'-fluorophenyl)-3,5-substituted indoles useful in the treatment of psychic disorders and pharmaceutical compositions thereof” (H. Lundbeck A/S, priority 1985, dated 1987).

For test [1], the system named is methylphenidate-induced gnawing. In words: Methylphenidate antagonism. It is filed as in vivo, mice.
Test [2] deals with T1, 5-HT2 receptor (Rattus norvegicus, UniProt P14842).
T1 construct: from tissue; host or cells: living rats (in vivo), CNS
T1 sequence (P14842 whole entry): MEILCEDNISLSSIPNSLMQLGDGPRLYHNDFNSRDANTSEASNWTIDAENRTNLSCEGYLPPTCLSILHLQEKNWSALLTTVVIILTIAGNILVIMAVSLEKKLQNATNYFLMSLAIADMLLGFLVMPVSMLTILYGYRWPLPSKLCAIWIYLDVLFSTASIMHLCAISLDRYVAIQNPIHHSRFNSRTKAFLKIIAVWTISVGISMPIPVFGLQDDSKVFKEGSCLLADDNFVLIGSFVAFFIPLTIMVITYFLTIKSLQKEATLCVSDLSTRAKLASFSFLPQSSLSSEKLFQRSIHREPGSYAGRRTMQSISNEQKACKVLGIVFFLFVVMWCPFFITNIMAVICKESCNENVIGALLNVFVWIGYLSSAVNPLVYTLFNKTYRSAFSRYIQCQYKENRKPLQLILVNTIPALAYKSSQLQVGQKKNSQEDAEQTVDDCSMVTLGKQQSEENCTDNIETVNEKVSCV
In words: Quipazine inhibition (head twitches). Format: in vivo. The conditions noted are these: for Qvipaz. inh. ED50(sc): sc 2 hours before quipazine 15 umol/kg sc. The protocol:
Quipazine and a number of other compounds, which increase 5-HT2 receptor activity in the CNS, induce a characteristic rapid shake (twitch) of the head. This response is inhibited by 5-HT2 receptor antagonists (Vetulani et al. 1980, Arnt et al. 1984).
The test compound or saline is injected subcutaneously 2 hours before subcutaneous injection of quipazine hemimalecate (15umol/kg). At least 3 dose groups, each consisting of at least 4 rats, are used. The rats are individually placed in observation cages (12×25 cm) and the number of head twitches are counted 30-40 min after quipazine administration. Inhibition of head twitches is expressed in per cent of the number of head twitches in the control group. ED 50 values are calculated by log-probit analysis.
Vetulani, J., B.B. Beduarczyk, K. Reichenberg and A. Rokost: Neuropharmacology 19, 155-158, […].
Arnt, J., J. Hyttel and J.-J. Larsen: Acta pharmacol. et toxicol. 55, 363-372, 1984.

Test [3] is described as follows: Catalepsy. Format: in vivo, rat.
Setting [4] is: Mus musculus, sc, read-out: MePh Antg. ED50 (sc).
The mark [5] stands for this setting: Mus musculus, sc; read-out: MePh Antg. ED50 (sc).
[6] abbreviates: Rattus norvegicus, sc, read-out: Catalep. ED50 (sc) 1-6 h.
Where [7] appears, read: Mus musculus, ip; i.p. test substance; mice; methylphenidate s.c. 60 mg/kg; read-out: MePh Antg. ED50(ip).
Setting [8] is: read-out: Catalep. ED50(po) 1-6 h, po, rat, 1-6 h.
[9] abbreviates: read-out: Catalep. ED50(po) 24 h, po, rat, 24 h.
Setting [10] is: Rattus norvegicus, sc, 24 h, read-out: Catalep. ED50 (sc) 24 h.

Where a name gives a salt, the structure may show the parent alone. Read-outs that look alike come from different tables or passages of the source.

For `OCCN1CC=C(c2cn(-c3ccc(C(F)(F)F)cc3)c3ccccc23)CC1` [Lu 24-012, 3-(1-(2-Hydroxyethyl)-1,2,3,6-tetrahydropyridin-4-yl)-1-(4'-trifluoromethylphenyl-1H-indole, fumarate], the ED50 in test [1] (setting [4]) is more than 20 µmol/kg. For the compound `CN1CC=C(c2cn(-c3cccnc3)c3ccc([N+](=O)[O-])cc23)CC1` [Lu 24-016, 3-(1-Methyl-1,2,3,6-tetrahydropyridin-4-yl)-5-nitro-1-pyridin-3-yl-1H-indole], in test [1] (setting [4]), the median effective dose (ED50) is more than 30 µmol/kg. For `CCCCCCCCCC(=O)OCCN1CCN(c2cn(-c3ccc(F)cc3)c3ccc(C(F)(F)F)cc23)CC1` [Lu 23-162], the ED50 in test [1] (setting [5]) was 1.7 µmol/kg. For `O=C1NCCN1CCN1CC=C(c2cn(-c3ccc(F)cc3)c3ccccc23)CC1` [Lu 23-075, 1-(4'-Fluorophenyl)-3-(1-(2-imidazolidinon-1-ylethyl)-1,2,3,6-tetrahydropyridin-4-yl)-1H-indole, hydrochloride], the ED50 in test [1] (setting [4]) came out at 19 µmol/kg; in test [2] (sc, 2 h, read-out: Qvipaz. inh. ED50(sc)) it was 0.18 µmol/kg.

Consider `OCCN1CC=C(c2cn(-c3ccc(F)cc3)c3ccc(Cl)cc23)CC1` [Lu 23-146, 5-Chloro-1-(4'-fluorophenyl)-3-(1-(2-hydroxyethyl)-1,2,3,6-tetrahydropyridin-4-yl)-1H-indole, hydrochloride], for which the 50% effective dose (ED50) in test [1] (setting [4]) was found to be 0.73 µmol/kg; in test [3] (setting [6]) it was 1 µmol/kg. As for `CN1CC=C(c2cn(-c3ccc(F)cc3)c3ccc(N)cc23)CC1` [Lu 23-149, 5-Amino-1-(4'-fluorophenyl)-3-(1-methyl-1,2,3,6-tetrahydropyridin-4-yl)-1H-indole, fumarate], in test [1] (setting [4]), the ED50 amounted to 0.45 µmol/kg. On the same count and under the same terms, the figure for `Fc1ccc(-n2cc(C3=CCNCC3)c3cc(Cl)ccc32)cc1` [Lu 23-147, 5-Chloro-1-(4'-fluorophenyl)-3-(1,2,3,6-tetrahydropridin-4-yl)-1H-indole] is more than 99 µmol/kg; for `CN1CC=C(c2cn(-c3nccs3)c3ccc(F)cc23)CC1` [Lu 24-013, 5-Fluro-3-(1-methyl-1,2,3,6-tetrahydropyridin-4-yl)-1-(2-thiazolo)-1H-indole, fumarate] it is more than 20 µmol/kg; for `O=C1NCCN1CCN1CC=C(c2cn(-c3ccc(F)cc3)c3ccc(Cl)cc23)CC1` [Lu 23-148, 5-Chloro-1-(4'-fluorophenyl)-3-(1-(2-imidazolidinon-1-ylethyl)-1,2,3,6-tetrahydropyridin-4-yl)-1H-indole] it is more than 91 µmol/kg. For the compound `CN1CCC(c2cn(-c3ccc(F)cc3)c3ccc(C(F)(F)F)cc23)CC1` [Lu 21-131, 1-(4'-Fluorophenyl)-3-(1-methyl-4-piperidyl)-5-trifluoromethyl-1H-indole, oxalate], the figures for the ED50 in test [1] (setting [7]), in test [3] (setting [8]) and in test [3] (setting [9]) were 0.6 µmol/kg, 0.59 µmol/kg and 2.2 µmol/kg, respectively. On to `CC(=O)OCCN1CCN(c2cn(-c3ccc(F)cc3)c3ccc(C(F)(F)F)cc23)CC1` [Lu 23-161], for which the ED50 in test [1] (setting [5]) stood at 0.05 µmol/kg; in test [3] (setting [10]) it was 0.18 µmol/kg; in test [3] (setting [6]), 0.09 µmol/kg. As for `Fc1ccc(-n2cc(N3CCN(CCN4CCCC4=S)CC3)c3cc(C(F)(F)F)ccc32)cc1` [Lu 23-018, 1-(4'-Fluorophenyl)-3-(4-(2-(pyrrolidin-2-thion-1-yl)-ethyl)-1-piperazino)-5-trifluoromethyl-1H-indole], the ED50 in test [1] (setting [7]) is 53 µmol/kg; in test [3] (setting [8]), 1.2 µmol/kg; in test [3] (setting [9]) it was 2.9 µmol/kg. As for `O=C1NCCN1CCN1CC=C(c2cn(-c3ccc(F)cc3)c3ccc(C(F)(F)F)cc23)CC1` [Lu 23-157, 1-(4'-Fluorophenyl)-3-(1-(2-imidazolidinon-1-ylethyl)-1,2,3,6-tetrahydropridin-4-yl)-5-trifluoromethyl-1H-indole], the ED50 in test [1] (setting [4]) came out at 0.37 µmol/kg; in test [3] (setting [10]), 2.6 µmol/kg; in test [3] (setting [6]), 0.49 µmol/kg. Also, in test [2], the “Qvipaz. inh. ED50(sc)” value amounted to 0.12 µmol/kg. As for `CN1CC=C(c2cn(-c3ccccn3)c3ccc([N+](=O)[O-])cc23)CC1` [Lu 24-015, 3-(1-Methyl-1,2,3,6-tetrahydropyridin-4-yl)-5-nitro-1-pyridin-2-yl-1H-indole], the median effective dose (ED50) in test [1] (setting [4]) was determined as 3.8 µmol/kg. In the case of `CCCCCCCC/C=C\CCCCCCCC(=O)OCCN1CCN(c2cn(-c3ccc(F)cc3)c3ccc(C(F)(F)F)cc23)CC1` [Lu 23-163, 1-(4'-Fluorophenyl)-3-(4-(l-oleyloxyethyl)-1-piperazino)-5-trifluoromethyl-1H-indole, dihydrochloride], the ED50 in test [1] (setting [5]) was 1.1 µmol/kg. As to `OCCCN1CC=C(c2cn(-c3ccc(F)cc3)c3ccc(C(F)(F)F)cc23)CC1` [Lu 23-171, 1-(4'-Fluorophenyl)-3-(1-(3-hydroxypropyl)-1,2,3,6-tetrahydropyridin-4-yl) -5trifluoromethyl-1H-indole], in test [1] (setting [4]), the ED50 was 0.11 µmol/kg. For `Fc1ccc(-n2cc(C3=CCNCC3)c3cc(F)ccc32)cc1` [Lu 23-159, 5-fluoro-1-(4'-fluorophenyl)-3-(1,2,3,6-tetrahydropyridin-4-yl)-1H-indole], the ED50 in test [1] (setting [4]) is 47 µmol/kg. In the case of `O=C1CCCN1CCN1CCC(c2cn(-c3ccc(F)cc3)c3ccc(C(F)(F)F)cc23)CC1` [Lu 23-158, 1-(4'-Fluorophenyl)-3-(1-(1-pyrrolidin-2-onylethyl)-4-piperidyl)-5-trifluoromethyl-1H-indole, fumarate], the median effective dose (ED50) in test [1] (setting [5]) is 2.9 µmol/kg. `CC(C)N1CC=C(c2cn(-c3ccc(F)cc3)c3ccc(F)cc23)CC1` [Lu 23-167, 5-fluoro-1-(4'-fluorophenyl)-3-(1-(2-propyl)-1,2,3,6-tetrahydropyridin-4-yl)-1H-indole, fumarate]: the ED50 in test [1] (setting [4]) was 2.7 µmol/kg; in test [3] (setting [10]), more than 11 µmol/kg; in test [3] (setting [6]), 2.7 µmol/kg.

With `O=C1NCCN1CCN1CC=C(c2cn(-c3ccc(F)cc3)c3ccc(F)cc23)CC1` [Lu 21-046, oxalate], in test [1] (Mus musculus, ip, read-out: MePh Antg. ED50(ip)), the median effective dose (ED50) was 48.1 µmol/kg. Consider `CN1CC=C(c2cn(-c3cccc(F)c3)c3ccc([N+](=O)[O-])cc23)CC1` [Lu 24-004, 1-(3'-Fluorophenyl)-5-nitro-3-(1-methyl-1,2,3,6-tetrahydropyridin-4-yl)-1H-indole, maleate], for which, in test [1] (setting [4]), the 50% effective dose (ED50) was 1.1 µmol/kg. On to `Cc1ccc2c(c1)c(C1CCN(C)CC1)cn2-c1ccc(F)cc1` [Lu 21-037, 1-(4'-Fluorophenyl)-5-methyl-3-(1-methyl-4-piperidyl)-1H-indole, hydrobromide], for which the ED50 in test [1] (setting [7]) was determined as 2.1 µmol/kg. Turning to `CN1CC=C(c2cn(-c3cccs3)c3ccc([N+](=O)[O-])cc23)CC1` [Lu 24-014, 3-(1-Methyl-1,2,3,6-tetrahydropyridin-4-yl)-5-nitro-1-(2-thienyl)-1H-indole, maleate], the ED50 in test [1] (setting [4]) is more than 22 µmol/kg. Turning to `Fc1ccc(-n2cc(C3=CCN(CCn4ccnc4)CC3)c3cc(C(F)(F)F)ccc32)cc1` [Lu 24-002, 1-(4'-Fluorophenyl)-3-(1-(1-imidazole-2-ethyl)-1,2,3,6-tetrahydropyridin-4-yl)-5-trifluoromethyl-1H-indole, dimaleate], in test [1] (setting [4]), the ED50 turned out to be 0.45 µmol/kg. In test [2], the “Qvipaz. inh. ED50(sc)” value is more than 0.45 µmol/kg. Consider `Fc1ccc(-n2cc(C3=CCNCC3)c3cc(C(F)(F)F)ccc32)cc1` [Lu 23-155, 1-(4'-Fluorophenyl)-3-(1,2,3,6-tetrahydropyridin-4-yl)-5-trifluoromethyl-1H-indole], for which the ED50 in test [1] (setting [4]) came to 3.8 µmol/kg. Regarding `O=C(CCCN1CCC(O)(c2ccc(Cl)cc2)CC1)c1ccc(F)cc1` [Haloperidol, reference compound], the ED50 in test [1] (setting [7]) worked out at 0.11 µmol/kg; in test [3] (setting [8]) it was 1 µmol/kg.
